Measured values published in patent US8703210B1, “Adding calcium and bicarbonate to human blood” (Sang Lads, Inc., priority 2005, dated 2014).
Like-named read-outs stand apart in the source and are kept apart here.

Structure (SMILES): O=C([O-])[O-].[Ca+2] [Calcium carbonate, calcium carbonate]
- pH (after carbonic acid (in the form of club soda) is added to the mixture): neutral
- pH (calcium carbonate powder dissolved into water): ≤ 9
